Test system: MV-4-11 cells
Test: Gene expression microarray analysis (Affymetrix PrimeView) and GSEA
Type: cell-based, human
Set-up: RFU PODN (11730768_x_at) / Fold change /veh PODN (11730768_x_at) / RFU LINC00158 (11744669_a_at) / Fold change /veh LINC00158 (11744669_a_at) / RFU DUSP10 (11751237_a_at) / Fold change /veh DUSP10 (11751237_a_at) / RFU ID3 (11757404_x_at) / Fold change /veh ID3 (11757404_x_at) / RFU PLEKHG5 (11737974_s_at) / Fold change /veh PLEKHG5 (11737974_s_at) / RFU LRRC4B (11730491_at) / Fold change /veh LRRC4B (11730491_at) / RFU GIMAP4 (11747438_a_at) / Fold change /veh GIMAP4 (11747438_a_at) / RFU KRT8 (11758183_x_at) / Fold change /veh KRT8 (11758183_x_at) / RFU CNN1 (11734310_a_at) / Fold change /veh CNN1 (11734310_a_at) / RFU VPS37D (11726825_at) / Fold change /veh VPS37D (11726825_at) / RFU C10orf10 (11716522_x_at) / Fold change /veh C10orf10 (11716522_x_at) / RFU KIR2DL2 /// KIR2DL4 /// KIR2DL5A /// KIR2DL5B /// KIR2DS1 /// KIR2DS2 /// KIR2DS3 /// KIR2DS4 /// KIR3DL3 /// KIR3DL3 /// KIR3DS1 (11738374_at) / Fold change /veh KIR2DL2 /// KIR2DL4 /// KIR2DL5A /// KIR2DL5B /// KIR2DS1 /// KIR2DS2 /// KIR2DS3 /// KIR2DS4 /// KIR3DL3 /// KIR3DL3 /// KIR3DS1 (11738374_at) / RFU C1QL1 (11718748_at) / Fold change /veh C1QL1 (11718748_at) / RFU TMPRSS4 (11747572_a_at) / Fold change /veh TMPRSS4 (11747572_a_at) / RFU HAMP (11756126_x_at) / Fold change /veh HAMP (11756126_x_at) / RFU RNFT2 (11725882_a_at) / Fold change /veh RNFT2 (11725882_a_at) / RFU NR4A2 (11747474_a_at) / Fold change /veh NR4A2 (11747474_a_at) / RFU ABCC12 (11746883_a_at) / Fold change /veh ABCC12 (11746883_a_at) / RFU TMEM136 (11760407_x_at) / Fold change /veh TMEM136 (11760407_x_at) / RFU CLDN22 /// WWC2 (11732394_at) / Fold change /veh CLDN22 /// WWC2 (11732394_at) / RFU HLA-DPB1 (11760878_x_at) / Fold change /veh HLA-DPB1 (11760878_x_at) / RFU SPINT1 (11716480_a_at) / Fold change /veh SPINT1 (11716480_a_at) / RFU GAP43 (11754022_s_at) / Fold change /veh GAP43 (11754022_s_at) / RFU A4GNT (11735810_at) / Fold change /veh A4GNT (11735810_at) / RFU PRB3 (11715151_x_at) / Fold change /veh PRB3 (11715151_x_at) / RFU TUBB4B (11761932_at) / Fold change /veh TUBB4B (11761932_at) / RFU CAPN14 (11732068_a_at) / Fold change /veh CAPN14 (11732068_a_at) / RFU TMCC2 (11721928_a_at) / Fold change /veh TMCC2 (11721928_a_at) / RFU IRGQ (11745062_a_at) / Fold change /veh IRGQ (11745062_a_at) / RFU FAM174B (11720279_a_at) / Fold change /veh FAM174B (11720279_a_at) / RFU TMPRSS4 (11748680_a_at) / Fold change /veh TMPRSS4 (11748680_a_at) / RFU FAM212B (11763350_a_at) / Fold change /veh FAM212B (11763350_a_at) / RFU PLEKHG5 (11743358_a_at) / Fold change /veh PLEKHG5 (11743358_a_at) / RFU ZSCAN30 (11745921_a_at) / Fold change /veh ZSCAN30 (11745921_a_at) / RFU CMKLR1 (11741424_a_at) / Fold change /veh CMKLR1 (11741424_a_at) / RFU LOC101060620 /// MAPK8IP1 (11723275_at) / Fold change /veh LOC101060620 /// MAPK8IP1 (11723275_at) / RFU SPTSSB (11747773_x_at) / Fold change /veh SPTSSB (11747773_x_at) / RFU PRSS12 (11739890_at) / Fold change /veh PRSS12 (11739890_at) / RFU BIN1 (11741810_x_at) / Fold change /veh BIN1 (11741810_x_at) / RFU WNT11 (11732464_a_at) / Fold change /veh WNT11 (11732464_a_at) / RFU C10orf10 (11716521_a_at) / Fold change /veh C10orf10 (11716521_a_at) / RFU C5orf56 (11738089_at) / Fold change /veh C5orf56 (11738089_at) / RFU CYB561 (11721691_x_at) / Fold change /veh CYB561 (11721691_x_at) / RFU ANKRD19P (11752326_a_at) / Fold change /veh ANKRD19P (11752326_a_at) / RFU OR2T12 /// OR2T33 /// OR2T8 (11738714_s_at) / Fold change /veh OR2T12 /// OR2T33 /// OR2T8 (11738714_s_at) / RFU VCAN (11748164_a_at) / Fold change /veh VCAN (11748164_a_at) / RFU JSRP1 (11732532_at) / Fold change /veh JSRP1 (11732532_at) / RFU KRTAP10-11 (11738290_x_at) / Fold change /veh KRTAP10-11 (11738290_x_at) / RFU MYO3A (11730013_a_at) / Fold change /veh MYO3A (11730013_a_at) / RFU EBF3 (11725865_a_at) / Fold change /veh EBF3 (11725865_a_at) / RFU CAMK2N1 (11719241_x_at) / Fold change /veh CAMK2N1 (11719241_x_at) / RFU C5orf56 (11738088_a_at) / Fold change /veh C5orf56 (11738088_a_at) / RFU OLFML3 (11715873_a_at) / Fold change /veh OLFML3 (11715873_a_at) / RFU LOC100653217 /// NTM (11731650_a_at) / Fold change /veh LOC100653217 /// NTM (11731650_a_at) / RFU MAPK11 (11762145_a_at) / Fold change /veh MAPK11 (11762145_a_at) / RFU FIZ1 (11724087_x_at) / Fold change /veh FIZ1 (11724087_x_at) / RFU OASL (11726364_x_at) / Fold change /veh OASL (11726364_x_at) / RFU SOX15 (11748057_x_at) / Fold change /veh SOX15 (11748057_x_at) / RFU CD79A (11719716_a_at) / Fold change /veh CD79A (11719716_a_at) / RFU HIST1H1D (11736915_at) / Fold change /veh HIST1H1D (11736915_at) / RFU CASKIN2 (11723855_a_at) / Fold change /veh CASKIN2 (11723855_a_at) / RFU LOC730098 (11760151_x_at) / Fold change /veh LOC730098 (11760151_x_at) / RFU OR4N2 (11742367_at) / Fold change /veh OR4N2 (11742367_at) / RFU PRRT2 (11749266_a_at) / Fold change /veh PRRT2 (11749266_a_at) / RFU SNX32 (11753110_a_at) / Fold change /veh SNX32 (11753110_a_at) / RFU CDHR5 (11726645_a_at) / Fold change /veh CDHR5 (11726645_a_at) / RFU RCAN1 (11760418_a_at) / Fold change /veh RCAN1 (11760418_a_at) / RFU FAM167A (11723789_a_at) / Fold change /veh FAM167A (11723789_a_at) / RFU FAM26E (11764081_at) / Fold change /veh FAM26E (11764081_at) / RFU ISYNA1 (11749810_s_at) / Fold change /veh ISYNA1 (11749810_s_at) / RFU ACY1 (11761880_at) / Fold change /veh ACY1 (11761880_at) / RFU 11764098_at / Fold change /veh 11764098_at / RFU SAMD14 (11745864_x_at) / Fold change /veh SAMD14 (11745864_x_at) / RFU NPB (11741838_a_at) / Fold change /veh NPB (11741838_a_at) / RFU TMPRSS6 (11731388_a_at) / Fold change /veh TMPRSS6 (11731388_a_at) / RFU KRTAP10-2 (11738614_at) / Fold change /veh KRTAP10-2 (11738614_at) / RFU ARHGAP8 /// PRR5-ARHGAP8 (11727945_x_at) / Fold change /veh ARHGAP8 /// PRR5-ARHGAP8 (11727945_x_at) / RFU KRTAP5-7 /// NADSYN1 (11734609_at) / Fold change /veh KRTAP5-7 /// NADSYN1 (11734609_at) / RFU RASL12 (11751679_a_at) / Fold change /veh RASL12 (11751679_a_at) / RFU CDKN2B (11736163_a_at) / Fold change /veh CDKN2B (11736163_a_at) / RFU PRF1 (11729649_at) / Fold change /veh PRF1 (11729649_at) / RFU, ZNF638 /// ZNF638-IT1 / Fold change vs veh, ZNF638 /// ZNF638-IT1 / RFU, PANK3 / Fold change vs veh, PANK3 / RFU, SH3YL1 / Fold change vs veh, SH3YL1 / RFU, ZEB2 / Fold change vs veh, ZEB2 / RFU, NRIP1 / Fold change vs veh, NRIP1 / RFU, PTTG1IP / Fold change vs veh, PTTG1IP / RFU, CAPN2 / Fold change vs veh, CAPN2 / RFU, MED14 / Fold change vs veh, MED14 / RFU, SNORA58 / Fold change vs veh, SNORA58 / RFU, C1orf63 / Fold change vs veh, C1orf63 / RFU, LRRFIP1 / Fold change vs veh, LRRFIP1 / RFU, NDUFAF7 / Fold change vs veh, NDUFAF7 / RFU, SLC12A2 / Fold change vs veh, SLC12A2 / RFU, IBTK / Fold change vs veh, IBTK / RFU, ESF1 / Fold change vs veh, ESF1 / Fold change vs veh, TMEM50B / RFU, TAOK1 / Fold change vs veh, TAOK1 / RFU, ACBD3 / Fold change vs veh, ACBD3 / RFU, TMA16 / Fold change vs veh, TMA16 / RFU, RWDD3 / Fold change vs veh, RWDD3 / RFU, BCAT1 / Fold change vs veh, BCAT1 / RFU, EDEM3 / Fold change vs veh, EDEM3 / RFU, TMEM33 / Fold change vs veh, TMEM33 / RFU, WDR75 / Fold change vs veh, WDR75 / RFU, AHCTF1 / Fold change vs veh, AHCTF1 / RFU, TFRC / Fold change vs veh, TFRC / RFU, ZDHHC17 / Fold change vs veh, ZDHHC17 / RFU, NOM1 / Fold change vs veh, NOM1 / RFU, ARL8B / Fold change vs veh, ARL8B / RFU, ZBTB11 / Fold change vs veh, ZBTB11 / RFU, TAMM41 / Fold change vs veh, TAMM41 / RFU, KIAA1704 /// LOC100996395 / Fold change vs veh, KIAA1704 /// LOC100996395 / RFU, ING1 / Fold change vs veh, ING1 / RFU, TRMT61B / Fold change vs veh, TRMT61B / RFU, FUBP3 / Fold change vs veh, FUBP3 / RFU, TP53 / Fold change vs veh, TP53 / RFU, TNKS2 / Fold change vs veh, TNKS2 / RFU, ZFP14 / Fold change vs veh, ZFP14 / RFU, ACTR2 / Fold change vs veh, ACTR2 / RFU, PPP3R1 / Fold change vs veh, PPP3R1 / RFU, PIK3R1 / Fold change vs veh, PIK3R1 / RFU, HNRNPA1 / Fold change vs veh, HNRNPA1 / RFU, RNF170 / Fold change vs veh, RNF170 / RFU, ZNF28 / Fold change vs veh, ZNF28 / RFU, RNGTT / Fold change vs veh, RNGTT / RFU, OGT / Fold change vs veh, OGT / RFU, BRD1 / Fold change vs veh, BRD1 / RFU, MARS / Fold change vs veh, MARS / RFU, ZNF655 / Fold change vs veh, ZNF655 / RFU, FAHD1 / Fold change vs veh, FAHD1 / RFU, BDP1 / Fold change vs veh, BDP1 / RFU, LRRCC1 / Fold change vs veh, LRRCC1 / RFU, ARID1A / Fold change vs veh, ARID1A / RFU, ZNF146 / Fold change vs veh, ZNF146 / RFU, ZNF330 / Fold change vs veh, ZNF330 / RFU, GPN3 / Fold change vs veh, GPN3 / RFU, C9orf123 / Fold change vs veh, C9orf123 / RFU, N4BP2L2 / Fold change vs veh, N4BP2L2 / RFU, ARFIP1 / Fold change vs veh, ARFIP1 / RFU, FAM179B / Fold change vs veh, FAM179B / RFU, BCL10 / Fold change vs veh, BCL10 / RFU, UHRF1BP1L / Fold change vs veh, UHRF1BP1L / RFU, BET1 / Fold change vs veh, BET1 / RFU, CNOT2 / Fold change vs veh, CNOT2 / RFU, ZNF268 / Fold change vs veh, ZNF268 / Fold change vs veh, ZNF507 / RFU, DGCR2 / Fold change vs veh, DGCR2 / RFU, WDSUB1 / Fold change vs veh, WDSUB1 / Fold change vs veh, HSP90B1 /// MIR3652 / RFU, ADSS / Fold change vs veh, ADSS / RFU, GK / Fold change vs veh, GK / RFU, ZNF148 / Fold change vs veh, ZNF148 / RFU, TAF9 / Fold change vs veh, TAF9 / RFU, SLC1A5 / Fold change vs veh, SLC1A5 / RFU, SLMO2 / Fold change vs veh, SLMO2 / RFU, ABCC4 / Fold change vs veh, ABCC4 / RFU, LOC101060439 /// RAP1B / Fold change vs veh, LOC101060439 /// RAP1B / RFU, RFX7 / Fold change vs veh, RFX7 / RFU, GTPBP10 / Fold change vs veh, GTPBP10 / RFU, CNEP1R1 / Fold change vs veh, CNEP1R1 / RFU, BIVM-ERCC5 /// ERCC5 / Fold change vs veh, BIVM-ERCC5 /// ERCC5 / RFU, ILF3 / Fold change vs veh, ILF3 / RFU 11762660_at / Fold change /veh 11762660_at / RFU VCAN (11757783_s_at) / Fold change /veh VCAN (11757783_s_at) / RFU DDX43 (11728927_at) / Fold change /veh DDX43 (11728927_at) / RFU KRT8 (11758188_x_at) / Fold change /veh KRT8 (11758188_x_at) / RFU NKD1 (11759106_at) / Fold change /veh NKD1 (11759106_at) / RFU SRD5A1 (11742802_a_at) / Fold change /veh SRD5A1 (11742802_a_at) / RFU TPSAB1 /// TPSB2 (11721975_s_at) / Fold change /veh TPSAB1 /// TPSB2 (11721975_s_at) / RFU GSTM3 (11746129_a_at) / Fold change /veh GSTM3 (11746129_a_at) / RFU IL23R (11737362_x_at) / Fold change /veh IL23R (11737362_x_at) / RFU TMEM51 (11727254_a_at) / Fold change /veh TMEM51 (11727254_a_at) / RFU PIWIL2 (11732686_x_at) / Fold change /veh PIWIL2 (11732686_x_at) / RFU ORM1 (11744905_x_at) / Fold change /veh ORM1 (11744905_x_at) / RFU CCDC152 (11743942_at) / Fold change /veh CCDC152 (11743942_at) / RFU ECM1 (11717891_a_at) / Fold change /veh ECM1 (11717891_a_at) / RFU IL23R (11748794_a_at) / Fold change /veh IL23R (11748794_a_at) / RFU TNFAIP8L3 (11732012_x_at) / Fold change /veh TNFAIP8L3 (11732012_x_at) / RFU MBOAT4 (11741988_at) / Fold change /veh MBOAT4 (11741988_at) / RFU 11764193_at / Fold change /veh 11764193_at / RFU TMEM53 (11763286_at) / Fold change /veh TMEM53 (11763286_at) / RFU MAGEB2 (11727129_at) / Fold change /veh MAGEB2 (11727129_at) / RFU TMEM200A (11744735_a_at) / Fold change /veh TMEM200A (11744735_a_at) / RFU CCDC152 (11751479_a_at) / Fold change /veh CCDC152 (11751479_a_at) / RFU FAM211A (11726209_a_at) / Fold change /veh FAM211A (11726209_a_at) / RFU RGS16 (11746705_a_at) / Fold change /veh RGS16 (11746705_a_at) / RFU VCAN (11755009_s_at) / Fold change /veh VCAN (11755009_s_at) / RFU RHOB (11743442_s_at) / Fold change /veh RHOB (11743442_s_at) / RFU RGS16 (11720943_a_at) / Fold change /veh RGS16 (11720943_a_at) / RFU RGS16 (11720944_at) / Fold change /veh RGS16 (11720944_at) / RFU, VPS4B / Fold change vs veh, VPS4B / RFU, CREB1 / Fold change vs veh, CREB1 / RFU, DNAJC13 / Fold change vs veh, DNAJC13 / RFU, GNAQ / Fold change vs veh, GNAQ / RFU, CDK5R1 / Fold change vs veh, CDK5R1 / RFU, ZRANB3 / Fold change vs veh, ZRANB3 / RFU, CUL4A / Fold change vs veh, CUL4A / RFU, CCNY / Fold change vs veh, CCNY / RFU, UFL1 / Fold change vs veh, UFL1 / RFU, COG3 / Fold change vs veh, COG3 / RFU, DIAPH2 / Fold change vs veh, DIAPH2 / RFU, SKA2 / Fold change vs veh, SKA2 / RFU, AFF3 / Fold change vs veh, AFF3 / RFU, LMF1 / Fold change vs veh, LMF1 / RFU, IPO11 / Fold change vs veh, IPO11 / RFU, DFFB / Fold change vs veh, DFFB / RFU, FOXP1 / Fold change vs veh, FOXP1 / RFU, CARD8 / Fold change vs veh, CARD8 / RFU, STRN3 / Fold change vs veh, STRN3 / RFU, ADK / Fold change vs veh, ADK / RFU, RASSF2 / Fold change vs veh, RASSF2 / RFU, WIPF1 / Fold change vs veh, WIPF1 / RFU, LARP1B / Fold change vs veh, LARP1B / RFU, RASA1 / Fold change vs veh, RASA1 / RFU, RB1 / Fold change vs veh, RB1 / RFU, PPFIA1 / Fold change vs veh, PPFIA1 / RFU, MAT2A / Fold change vs veh, MAT2A / RFU, CCT5 / Fold change vs veh, CCT5 / RFU, WDR92 / Fold change vs veh, WDR92 / RFU, CUX1 / Fold change vs veh, CUX1 / RFU, TTC7A / Fold change vs veh, TTC7A / RFU, TMEM135 / Fold change vs veh, TMEM135 / RFU, DEPTOR / Fold change vs veh, DEPTOR / RFU, CPM / Fold change vs veh, CPM / RFU, DNAJB6 / Fold change vs veh, DNAJB6 / RFU, CACNA2D3 / Fold change vs veh, CACNA2D3 / RFU, DTX4 / Fold change vs veh, DTX4 / RFU, TFCP2 / Fold change vs veh, TFCP2 / RFU, GMCL1 /// GMCL1P1 / Fold change vs veh, GMCL1 /// GMCL1P1 / RFU, AEBP2 / Fold change vs veh, AEBP2 / RFU, SNHG1 /// SNORD22 /// SNORD25 /// SNORD26 /// SNORD27 /// SNORD28 /// SNORD29 /// SNORD31 / Fold change vs veh, SNHG1 /// SNORD22 /// SNORD25 /// SNORD26 /// SNORD27 /// SNORD28 /// SNORD29 /// SNORD31 / Fold change (Aza/veh), C12orf56 (ProbeSet 11735607_a_at) / Fold change (ACY-1035/veh), C12orf56 (ProbeSet 11735607_a_at) / Fold change (Aza/veh), FGFR1OP (ProbeSet 11751329_s_at) / Fold change (ACY-1035/veh), FGFR1OP (ProbeSet 11751329_s_at) / Fold change (Aza/veh), VPS36 (ProbeSet 11739960_a_at) / Fold change (ACY-1035/veh), VPS36 (ProbeSet 11739960_a_at) / RFU SYPL1 (11715823_x_at) / Fold change /veh SYPL1 (11715823_x_at) / RFU IGFBP7 (11715501_s_at) / Fold change /veh IGFBP7 (11715501_s_at) / RFU REEP3 (11722064_at) / Fold change /veh REEP3 (11722064_at) / RFU IGLL1 (11728026_x_at) / Fold change /veh IGLL1 (11728026_x_at): dose or concentration left out as unconfirmed
Conditions: MV-4-11 cells, 48 hours

Nc1ncn([C@@H]2O[C@H](CO)[C@@H](O)[C@H]2O)c(=O)n1 [azacitidine]
Fold change /veh TPSAB1 /// TPSB2 (11721975_s_at): 1.21

Source: article PMC5218480 (PLoS ONE, 2017)
